{"source": "PubChem BioAssay AID248", "about": "(DTP/NCI, 2004)", "system": "L1210 leukemia ip in BDF1 mice, survival T/C", "assay": "NCI In Vivo Anticancer Drug Screen. Data for tumor model L1210 Leukemia (intraperitoneal) in B6D2F1 (BDF1) mice", "settings": "endpoint: mean survival time, higher = longer survival", "method_in_brief": "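Transplanted-tumor mice were given test agent; controls received vehicle only. Survival readings from the two groups were divided (treated over control).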", "note": "Where “and” joins values, the source holds several entries; their conditions need not be identical. Equal values may be shown once. Inconclusive results and toxic doses are left out."}
{"smiles": "Cc1cccc(P(=O)(c2ccccc2)c2ccccc2)c1", "note": "(tested in a mixture with another compound)", "values": [{"measurement": "T/C", "setting": "dose: 100.0 mg/kg/injection, schedule: Q04DX002 (ip), vehicle: saline with Tween-80", "value": "104 % of control"}, {"measurement": "T/C", "setting": "dose: 200.0 mg/kg/injection, schedule: Q04DX002 (ip), vehicle: saline with Tween-80", "value": "96 % of control"}, {"measurement": "T/C", "setting": "dose: 400.0 mg/kg/injection, schedule: Q04DX002 (ip), vehicle: saline with Tween-80", "value": "88 % of control"}]}
{"smiles": "CCSC(SCC)C1OC(C)(C)OC1C1COC(C)(C)O1", "note": "(stereo unspecified)", "values": [{"measurement": "T/C", "setting": "dose: 100.0 mg/kg/injection, schedule: Q01DX001 (ip), vehicle: carboxymethylcellulose (CMC)", "value": "103 % of control"}, {"measurement": "T/C", "setting": "dose: 100.0 mg/kg/injection, schedule: Q04DX003 (ip), vehicle: saline with Tween-80", "value": "96 % of control"}, {"measurement": "T/C", "setting": "dose: 200.0 mg/kg/injection, schedule: Q01DX001 (ip), vehicle: carboxymethylcellulose (CMC)", "value": "103 % of control"}, {"measurement": "T/C", "setting": "dose: 200.0 mg/kg/injection, schedule: Q04DX003 (ip), vehicle: saline with Tween-80", "value": "94 % of control"}, {"measurement": "T/C", "setting": "dose: 400.0 mg/kg/injection, schedule: Q01DX001 (ip), vehicle: carboxymethylcellulose (CMC)", "value": "103 % of control"}, {"measurement": "T/C", "setting": "dose: 400.0 mg/kg/injection, schedule: Q04DX003 (ip), vehicle: saline with Tween-80", "value": "91 % of control"}]}
{"smiles": "S=c1[nH]c(-c2ccccc2)cs1", "values": [{"measurement": "T/C", "setting": "dose: 50.0 mg/kg/injection, schedule: Q01DX001 (ip), vehicle: other", "value": "90 % of control"}, {"measurement": "T/C", "setting": "dose: 100.0 mg/kg/injection, schedule: Q01DX001 (ip), vehicle: Klucel (hydroxypropylcellulose) (HPC)", "value": "96 % of control"}, {"measurement": "T/C", "setting": "dose: 100.0 mg/kg/injection, schedule: Q01DX001 (ip), vehicle: other", "value": "96 % of control"}, {"measurement": "T/C", "setting": "dose: 100.0 mg/kg/injection, schedule: Q01DX009 (ip), vehicle: Klucel (hydroxypropylcellulose) (HPC)", "value": "96 % of control"}, {"measurement": "T/C", "setting": "dose: 200.0 mg/kg/injection, schedule: Q01DX001 (ip), vehicle: Klucel (hydroxypropylcellulose) (HPC)", "value": "95 % of control"}, {"measurement": "T/C", "setting": "dose: 200.0 mg/kg/injection, schedule: Q01DX001 (ip), vehicle: other", "value": "100 % of control"}, {"measurement": "T/C", "setting": "dose: 200.0 mg/kg/injection, schedule: Q01DX009 (ip), vehicle: Klucel (hydroxypropylcellulose) (HPC)", "value": "96 % of control"}, {"measurement": "T/C", "setting": "dose: 400.0 mg/kg/injection, schedule: Q01DX001 (ip), vehicle: Klucel (hydroxypropylcellulose) (HPC)", "value": "95 % of control"}, {"measurement": "T/C", "setting": "dose: 400.0 mg/kg/injection, schedule: Q01DX001 (ip), vehicle: other", "value": "96 % of control"}, {"measurement": "T/C", "setting": "dose: 400.0 mg/kg/injection, schedule: Q01DX009 (ip), vehicle: Klucel (hydroxypropylcellulose) (HPC)", "value": "97 % of control"}]}
{"smiles": "CCOC(=O)Cc1c[nH]c2ccc(N(CCCl)CCCl)cc12", "values": [{"measurement": "T/C", "setting": "dose: 0.55 mg/kg/injection, schedule: Q01DX009 (ip), vehicle: carboxymethylcellulose (CMC)", "value": "121 % of control"}, {"measurement": "T/C", "setting": "dose: 1.5 mg/kg/injection, schedule: Q01DX009 (ip), vehicle: carboxymethylcellulose (CMC)", "value": "151 % of control"}, {"measurement": "T/C", "setting": "dose: 2.2 mg/kg/injection, schedule: Q01DX009 (ip), vehicle: other", "value": "152 % of control"}, {"measurement": "T/C", "setting": "dose: 3.1 mg/kg/injection, schedule: Q01DX009 (ip), vehicle: carboxymethylcellulose (CMC)", "value": "160 % of control and 177 % of control"}, {"measurement": "T/C", "setting": "dose: 3.4 mg/kg/injection, schedule: Q01DX009 (ip), vehicle: other", "value": "152 % of control"}, {"measurement": "T/C", "setting": "dose: 4.8 mg/kg/injection, schedule: Q01DX009 (ip), vehicle: carboxymethylcellulose (CMC)", "value": "168 % of control"}, {"measurement": "T/C", "setting": "dose: 5.0 mg/kg/injection, schedule: Q01DX009 (ip), vehicle: other", "value": "169 % of control"}, {"measurement": "T/C", "setting": "dose: 7.0 mg/kg/injection, schedule: Q01DX009 (ip), vehicle: carboxymethylcellulose (CMC)", "value": "157 % of control"}, {"measurement": "T/C", "setting": "dose: 7.0 mg/kg/injection, schedule: Q01DX009 (ip), vehicle: other", "value": "176 % of control"}, {"measurement": "T/C", "setting": "dose: 7.3 mg/kg/injection, schedule: Q01DX001 (ip), vehicle: carboxymethylcellulose (CMC)", "value": "120 % of control"}, {"measurement": "T/C", "setting": "dose: 7.3 mg/kg/injection, schedule: Q01DX009 (ip), vehicle: carboxymethylcellulose (CMC)", "value": "176 % of control"}, {"measurement": "T/C", "setting": "dose: 11.0 mg/kg/injection, schedule: Q01DX001 (ip), vehicle: carboxymethylcellulose (CMC)", "value": "124 % of control"}, {"measurement": "T/C", "setting": "dose: 11.0 mg/kg/injection, schedule: Q01DX009 (ip), vehicle: carboxymethylcellulose (CMC)", "value": "168 % of control"}, {"measurement": "T/C", "setting": "dose: 11.1 mg/kg/injection, schedule: Q01DX009 (ip), vehicle: carboxymethylcellulose (CMC)", "value": "97 % of control"}, {"measurement": "T/C", "setting": "dose: 16.6 mg/kg/injection, schedule: Q01DX001 (ip), vehicle: carboxymethylcellulose (CMC)", "value": "121 % of control"}, {"measurement": "T/C", "setting": "dose: 25.0 mg/kg/injection, schedule: Q01DX001 (ip), vehicle: carboxymethylcellulose (CMC)", "value": "166 % of control and 225 % of control"}, {"measurement": "T/C", "setting": "dose: 37.5 mg/kg/injection, schedule: Q01DX001 (ip), vehicle: carboxymethylcellulose (CMC)", "value": "94 % of control"}]}
